Consider one compound from patent US20150352075A1, “Treatment of Alzheimer's and Cognitive Impairment With Andrographolides” (INNOBIOSCIENCE, LLC, priority 2013, published 2015).

For one data set, the system named is HEK293T cells. The data set is described as follows: TOPflash/FOPflash luciferase reporter assay. The data set is classed as cell-based. The procedure: 150,000 HEK293T cells were seeded in triplicate per condition and kept for 24 hours at 37° C. with 5% CO2. The cultures were transfected with TOPflash or FOPflash (400 ng), which are firefly-luciferase reporter DNA constructs (Milipore), using LipofectAMINE 2000 (Invitrogen). To control for transfection pRL-TK (10 ng) was included in all transfections. […] Values were normalized by the renilla value from the same well. To statistically compare treatments ANOVA was used.
A general note: Reporter assays use an easily measured gene product as a stand-in for the process of interest.

Data set [1] relates to Wnt/β-catenin pathway in cultured rat hippocampal neurons. The data set is described as follows: Wnt/β-catenin pathway activation in cultured hippocampal neurons (western blot, immunofluorescence). The data set is classed as cell-based. The procedure:
Primary culture of rat hippocampal neurons. Rat hippocampal cultures were prepared as previously described (Arrazola et al, 2009). On day 3 of culture, hippocampal cells were treated with […] 1-b-Darabinofuranosylcytosine (AraC) during 24 h to reduce the number of proliferating non-neuronal cells. […] PCR-ARRAY. RNA from hippocampal neurons was extracted using Trizol. Quantification and purity of RNA preparations were checked by absorbance using Nanodrop ND-2000. Only preparations with a 260/280 nm ratio ≧1.8, a 260/230 nm ratio ≧1.7 and no sign of RNA degradations, verified by agarose gel electrophoresis with Gel Red™ were used. Genomic DNA was degraded. Using RT2First-Strand cDNA Synthesis kit (SuperArray), 1 ng total RNA was reverse transcribed and then real-time PCR was performed by adding cDNA directly to PCR Master Mix, containing SYBR Green and ROX. The mixtures were then aliquoted into a 96-well PCR array plates, which profiles the expression of 84 Wnt target genes from rat. The PCR was run on ABI StepOnePlus, with 1 cycle of 10 min at 95° C. followed by 40 cycles of 15s at 95° C. and 1 min at 60° C. Cycle threshold (Ct) values were calculated for all the genes present on the array (Schmittgen & Livak, 2008). Treatment of neuronal cultures. Primary hippocampal cultures of neurons 14 DIV were washed twice in neurobasal medium and maintained for 1 hour. Next ANDRO (10 μM) and 6-BIO (10 μM) were added to different time periods.
Following a time-course treatment, neurons were washed with cold PBS and harvested in 600 μL of cold homogenization buffer (10 mM HEPES pH 7.9; 1.5 mM MgCl2; 10 mM KCl; 1 mM DTT). The cells were disrupted by 20 passed, back and forth, through a syringe of 1mL. Lysates were centrifuged for 6 minutes at 700 g at 4° C. and the supernatant was removed. The precipitate was washed in 100 μL of buffer (20 mM HEPES pH=7.9; 420 mM NaCl; 1.5 mM MgCl2; 0.2 mM EDTA; 1 mM DTT; 25% glicerol) and centrifuged again to generate nuclear fraction. Cytosolic fractions were generated from the supernatantat 100.000 g […] 4° C. Both buffers were supplemented with protease inhibitors and serine-phosphatase. Nuclear and cytosolic fractions were subsequently subjected to western blotting.
The samples were dissected on ice and immediately frozen in liquid nitrogen or processed has previously detailed (Inestrosa et al, 2011). Briefly, tissues were homogenized in RIPA buffer (10 mM Tris-Cl, pH 7.4, EDTA 5 mM, 1% NP-40, 1% sodium deoxycholate, and 1% SDS) supplemented with a protease inhibitor mixture (1 mM PMSF, 2 μg/mL aprotinin, 1 μg/mL pepstatin and 10 μg/mL benzamidine) and phosphatase inhibitors (25 mMNaF, 100 mM Na3VO4, 1 mM EDTA and 30 μM Na4P207) using a Potter homogenizator and then passed sequentially through different caliber syringes. Protein samples were centrifuged at 14000 rpm at 4° C. twice for 15 min. Protein concentration was determined using the BCA Protein Assay Kit (Pierce). Samples were resolved by […] 10% SDS-PAGE and transferred to a PVDF membrane. The reactions were followed by incubation with anti-mouse, anti-goat or anti-rabbit IgG peroxidase conjugated (Pierce, Rockford, Ill.) and developed using an ECL kit (Western Lightning Plus ECL, PerkinElmer).
Hippocampal neurons were seeded onto poly-L-lysine-coated cover slips in 24-well culture plates at a density of 5×10^4 cells per well, as described previously (Arrazola et al, 2009; Chacon et al, 2008). A mouse monoclonal anti-b-catenin was used. Cells were extensively washed with PBS and then incubated with Alexa 488-conjugated anti-mouse IgG for 1 h at room temperature. Cells were mounted in mounting medium and analyzed in a Carl-Zeiss Confocal Laser Microscope.

Data set [2] relates to CA3-CA1 connections in hippocampal slices. The data set is described as follows: Electrophysiology (fEPSP, PPF, LTP, LTD) in Wt hippocampal slices. The data set is classed as cell-based, mice. The procedure: Slices were transferred to an experimental chamber (2 ml), superfused (3 ml/min, at 20-22° C.) with gassed ACSF and visualized by trans-illumination with a binocular microscope (MSZ-10, Nikon, Melville, N.Y.). […] The stimulation was in the Stratum Radiatum within 100-200 μm from the recording site. The paired pulse facilitation index was calculated by ((R2−R1)/R1), where R1 and R2 were the peak amplitudes of the first and second fEPSP respectively. To generate LTP we used Theta Burst Stimulation (TBS) consisting of 5 trains of stimulus with an inter-train interval of 20 s. Each train consisted of 10 bursts at 5 Hz and each burst having 4 pulses at 100 Hz. To generate LTD we used Low Frequency Stimulation (LFS) consisting in 900 paired pulses at 1 Hz. Recordings were filtered at 2.0-3.0 kHz, sampled at 4.0 kHz using an A/D converter, and stored with pClamp 10 (Molecular Devices). Evoked postsynaptic responses were analyzed off-line, using an analysis software (pClampfit, Molecular Devices), which allowed visual detection of events, computing only those events that exceeded and arbitrary threshold.

Data set [3] relates to APPswe/PS-1 double transgenic mice. As to the kind of experiment: Classical Morris Water Maze test. The following applies: 12 month-old APPswe/PS-1 mice, 2.0 mg/kg IP three times per week, four weeks, vs Tg control. The data set is classed as in vivo.
The nature of data set [4]: Side effects in treated animals. The following applies: in vivo.
Data set [5] has as its system APPswe/PS-1 double transgenic mice. The data set is described as follows: Thioflavine-S staining of amyloid plaques in brain of treated mice. The data set is classed as in vivo.
Setting [6] is: hippocampal neurons, ANDRO 10 μM.
Setting [7] is: hippocampal neurons, different concentrations for 6 h.
[8] abbreviates: young APPswe/PS-1 mice, vs controls.

On to `C=C1CC[C@@H]2C(C)(CO)C(O)CC[C@@]2(C)C1C/C=C1/C(=O)OCC1O` (stereo in doubt) [ANDRO, 3-(2-(Decahydro-6-hydroxy-5-(hydroxymethyl)-5,8a-dimethyl-2-methylenenaphthyl)ethylidene)dihydro-4-hydroxyfuran-2(3H)-one], for which, in the data set with HEK293T cells (10 μM, 24 h), the FOPflash reporter activity result is on record as “not in the FOPflash” and the TOPflash reporter activity entry was “significant increase in the TOPflash”. In the data set with HEK293T cells (HEK293T, TOPflash), the “increase of luciferase reporter over control” value amounted to 4 fold. Moreover, the “β-catenin levels by immunofluorescence” value in data set [1] (5 μM for 6 h, neurons at 14 DIV) is “increased β-catenin levels”. Moreover, in data set [1] (setting [6]), the “time of maximum increase of the inhibited form of GSK-3β” value came out at 6 h; the “time of peak accumulation of cytoplasmic and nuclear β-catenin” value was 9 h. For the same compound, in data set [1] (setting [7]), the “accumulation of β-catenin” value is on record as “accumulation of β-catenin in a concentration-dependent manner”, the “active form of GSK-3β (phospho-Tyr-216)” value was “decrease in the active form (phosphor-Tyr-216)” and the “inhibited form of GSK-3β (phospho-Ser-9)” value is “increase in the inhibited form of the enzyme (phospho-Ser-9)”. Besides, the “fEPSP amplitude (basal synaptic transmission)” value in data set [2] (ANDRO (5 μM), slices exposed for 30 min) is reported as “increased the fEPSP amplitude”. In addition, the “paired pulse facilitation (PPF) ratio” value in data set [2] (Wt hippocampal slices) was “does not increase PPF ratio”. Also, in data set [2] (Wt hippocampal slices, TBS, in the presence of ANDRO), the “LTP induction or maintenance” value is given as “do not observed alteration in the LTP induction or maintenance”. Moreover, the “induction of LTD” value in data set [2] (hippocampal slices, LFS) was “the LTD was inhibited”. Further, the escape latency entry in data set [3] was “significantly lower escape latency values”. For the same compound, the “side effects in animals” value in data set [4] is “seems not to cause side effects in animals”. Moreover, the “plaque size distribution (cumulative frequency)” value in data set [5] (7 month-old APPswe/PS-1 mice) was “shift in their distribution toward smaller plaque size”. In data set [5] (7 month-old APPswe/PS-1 mice, cortex and hippocampus, vs untreated), the “amyloid plaques stained with Th-S” value is “reduction of amyloid plaques stained with Th-S”. The “amyloid deposit levels (amyloid burden area)” value in data set [5] (FIG. 3F mice (printed young; legend: old, 12 month-old), hippocampus or cortex) was “no change in amyloid deposit levels”. For the same compound, in data set [5] (setting [8]), the “most immature plaques (type 1)” value is “increase significantly”; the “type 2a and 2c amyloid plaques in total brain” value is given as “no significant differences”; the “type 2b amyloid plaques in brain” value was “significantly decreased”.
